The results in this text go back to US9669031B2, “MNK inhibitors and methods related thereto” (eFFECTOR Therapeutics, Inc., priority 2014, dated 2017).

The term pIC50 denotes the IC50 on a negative log10 scale, so that one unit is a factor of ten. A low value points to a large IC50. The AUC(0-t) is the area under the concentration-time curve up to a stated or last time point. Low readings indicate low exposure, high ones high exposure. Broadly, the Cmax is the peak of the concentration-time curve. A word on the Tmax: it is the time from dosing to the highest level.

Data set [1] has as its target Mnk1 (Homo sapiens (Human), UniProt Q9BUB5). The data set can be described thus: biochemical.
The conditions of data set [2]: female, Balb/c, mouse, in vivo, po, 10 mg/kg.
Data set [3] is described as follows: in vivo. The following applies: female, Balb/c, mouse, po, 10 mg/kg; for AUC(0-t): AUClast; for half-life: T½.
A short description of data set [4]: Pharmacokinetics in Balb/c mice, single intravenous bolus administration. It counts as in vivo. To be noted: intravenous bolus 1 mg/kg, gender F; for AUC(0-inf) / half-life / Vd: female, mouse, plasma; for AUC(0-inf): read-out: AUCINF_obs; for half-life: read-out: T½ (converted); for Vd: read-out: Vss.
Setting [5] is: formulation 10DMI/15EtOH/35PG/40D5W.
The mark [6] stands for this setting: formulation 10DMA/15EtOH/35PEG300/40D5W.

pIC50: −log10 of the molar value. Counter-ions that a name gives are not always drawn. Like-named read-outs stand apart in the source and are kept apart here.

Mnk1, sequence (Q9BUB5 whole entry): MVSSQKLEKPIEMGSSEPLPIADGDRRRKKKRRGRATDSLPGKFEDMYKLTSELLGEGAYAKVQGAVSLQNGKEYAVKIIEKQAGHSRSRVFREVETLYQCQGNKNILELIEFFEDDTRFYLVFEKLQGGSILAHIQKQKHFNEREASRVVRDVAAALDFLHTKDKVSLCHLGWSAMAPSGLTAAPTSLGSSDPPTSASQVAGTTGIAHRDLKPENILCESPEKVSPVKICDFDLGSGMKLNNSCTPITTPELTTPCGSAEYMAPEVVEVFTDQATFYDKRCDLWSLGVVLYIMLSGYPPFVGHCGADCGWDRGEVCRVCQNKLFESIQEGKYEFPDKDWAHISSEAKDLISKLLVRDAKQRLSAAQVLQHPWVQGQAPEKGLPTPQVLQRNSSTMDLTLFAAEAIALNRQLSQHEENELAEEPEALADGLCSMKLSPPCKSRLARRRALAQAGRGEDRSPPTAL

The molecule `O=C1NC2(CCNC2)n2c1ccc(Nc1ccncn1)c2=O` (stereo not drawn) [Cpd. No. 26, 6-(pyrimidin-4-ylamino)-1H-spiro[imidazo[1,5-a]pyridine-3,3′-pyrrolidine]-1,5(2H)-dione] had a negative logarithm of the IC50 (pIC50) in data set [1] of 7.00 to 8.00.
Molecule `CC1(c2cc(F)cc(Cl)c2)NC(=O)c2ccc(Nc3ccncn3)c(=O)n21` (stereo not drawn) [Cpd. No. 28, 3-(3-chloro-5-fluorophenyl)-3-methyl-6-(pyrimidin-4-ylamino)-2,3-dihydroimidazo[1,5-a]pyridine-1,5-dione] gave a negative logarithm of the IC50 (pIC50) in data set [1] of 7.00 to 8.00.
The same measure, in the same setting: for `CC1(c2cc(Cl)cc(Cl)c2)NC(=O)c2ccc(Nc3ccncn3)c(=O)n21` (stereo not drawn) [Cpd. No. 33, 3-(3,5-dichlorophenyl)-3-methyl-6-(pyrimidin-4-ylamino)-2,3-dihydroimidazo[1,5-a]pyridine-1,5-dione] the value was 7.00 to 8.00.
`Cl.O=C1NC2(CCCNC2)n2c1c(Cl)cc(Nc1cc(NC(=O)C3CC3)ncn1)c2=O` (stereo not drawn) [Cpd. No. 60, N-(6-((8-chloro-1,5-dioxo-1,5-dihydro-2H-spiro[imidazo[1,5-a]pyridine-3,3′-piperidin]-6-yl)amino)pyrimidin-4-yl)cyclopropanecarboxamide hydrochloride]: the pIC50 in data set [1] was greater than 8.00. In data set [2], the Tlast is reported as 4 h. In data set [3], the area under the curve AUC(0-t) came out at 78.2 ng·h/mL, the peak level (Cmax) was 36 ng/mL, the Tmax was 1 h and the half-life was 2.21 h.
On to `Nc1cc(Nc2cc(Cl)c3n(c2=O)C2(CCCCC2)NC3=O)ncn1` [Cpd. No. 70, 6′-((6-aminopyrimidin-4-yl)amino)-8′-chloro-2′H-spiro[cyclohexane-1,3′-imidazo[1,5-a]pyridine]-1′,5′-dione], for which, in data set [2], the AUClast was determined as 2010 ng·h/mL, the Tlast worked out at 8 h and the T½ is recorded as 3.74 h. Moreover, in data set [4] (setting [5]), the AUC(0-inf) was found to be 333 ng·h/mL, the half-life is 0.561 h, the Vd was 1.8 L/kg and the Cl_obs is 50.1 mL/min/kg. Moreover, in data set [3], the area under the curve AUC(0-t) worked out at 1470 ng·h/mL, the highest level (Cmax) was 983 ng/mL, the Tmax turned out to be 0.25 h and the half-life was 2 h.
The molecule `O=C1NC2(CNC2)n2c1c(Cl)cc(Nc1cc(NC(=O)C3CC3)ncn1)c2=O` [Cpd. No. 86, N-[6-[(8-chloro-1,5-dioxo-spiro[2H-imidazo[1,5-a]pyridine-3,3′-azetidine]-6-yl)amino]pyrimidin-4-yl]cyclopropanecarboxamide hydrochloride] gave a pIC50 in data set [1] greater than 8.00.
As for `CC1(C)NC(=O)c2c(Cl)cc(Nc3cc(N)ncn3)c(=O)n21` [Cpd. No. 88, 6-[(6-aminopyrimidin-4-yl)amino]-8-chloro-3,3-dimethyl-2H-imidazo[1,5-a]pyridine-1,5-dione], the Tlast in data set [2] is recorded as 8 h. Further, in data set [4] (setting [6]), the AUC(0-inf) came out at 273 ng·h/mL, the half-life was 1.3 h, the Vd is 3.03 L/kg and the Cl_obs was 61 mL/min/kg. In data set [3], the AUC(0-t) was found to be 2040 ng·h/mL, the concentration peaked (Cmax) at 810 ng/mL, the Tmax was determined as 0.5 h and the half-life was 2.97 h.
Turning to `Cc1cc(Nc2cc(N)ncn2)c(=O)n2c1C(=O)NC2(C)c1cccc(Cl)c1` (stereo not drawn) [Cpd. No. 92, 6-[(6-aminopyrimidin-4-yl)amino]-3-(3-chlorophenyl)-3,8-dimethyl-2H-imidazo[1,5-a]pyridine-1,5-dione], the pIC50 in data set [1] was greater than 8.00.
In data set [2], `Cc1cc(Nc2cc(N)ncn2)c(=O)n2c1C(=O)NC21CCCC1.Cl` [Cpd. No. 98, 6-[(6-aminopyrimidin-4-yl)amino]-8-methyl-spiro[2H-imidazo[1,5-a]pyridine-3,1′-cyclopentane]-1,5-dione hydrochloride] registered a Tlast of 8 h. For the same molecule, in data set [4] (setting [6]), the AUC(0-inf) turned out to be 358 ng·h/mL, the half-life is 1.79 h, the Vd came out at 3.56 L/kg and the Cl_obs is recorded as 46.6 mL/min/kg. Also, in data set [3], the AUC(0-t) turned out to be 4180 ng·h/mL, the highest level (Cmax) was 1200 ng/mL, the Tmax is 0.3 h and the half-life was 3.1 h.
`Cc1cc(Nc2cc(N)ncn2)c(=O)n2c1C(=O)NC2(C)c1cccc(F)c1` (stereo not drawn) [Cpd. No. 101, 6-((6-aminopyrimidin-4-yl)amino)-3-(3-fluorophenyl)-3,8-dimethyl-2,3-dihydroimidazo[1,5-a]pyridine-1,5-dione]: the negative logarithm of the IC50 (pIC50) in data set [1] is greater than 8.00.
Regarding `Cc1cc(Nc2cc(N)ncn2)c(=O)n2c1C(=O)NC21CCC(F)(F)CC1` [Cpd. No. 103, 6-[(6-aminopyrimidin-4-yl)amino]-4′,4′-difluoro-8-methyl-spiro[2H-imidazo[1,5-a]pyridine-3,1′-cyclohexane]-1,5-dione hydrochloride], the negative logarithm of the IC50 (pIC50) in data set [1] is greater than 8.00.
The molecule `CC(C)(C)C1(C)NC(=O)c2c(Cl)cc(Nc3cc(N)ncn3)c(=O)n21` (stereo not drawn) [Cpd. No. 105, 6-[(6-aminopyrimidin-4-yl)amino]-3-tert-butyl-8-chloro-3-methyl-2H-imidazo[1,5-a]pyridine-1,5-dione hydrochloride] showed a negative-log IC50 (pIC50) in data set [1] greater than 8.00.
Take `Cc1cc(Nc2cc(N)ncn2)c(=O)n2c1C(=O)NC21CCCCC1` [Cpd. No. 107, 6′-((6-aminopyrimidin-4-yl)amino)-8′-methyl-2′H-spiro[cyclohexane-1,3′-imidazo[1,5-a]pyridine]-1′,5′-dione]: in data set [2], the Tlast was found to be 8 h. Besides, in data set [4] (setting [6]), the AUC(0-inf) worked out at 502 ng·h/mL, the half-life is 2.91 h, the Vd worked out at 3.21 L/kg and the Cl_obs is listed as 33.2 mL/min/kg. In addition, in data set [3], the area under the curve AUC(0-t) was 2760 ng·h/mL, the highest level (Cmax) was 950 ng/mL, the time of peak concentration (Tmax) worked out at 1 h and the half-life was 5.3 h.
As for `Cl.Cl.Nc1cc(Nc2cc(Cl)c3n(c2=O)C2(CCNCC2)NC3=O)ncn1` [Cpd. No. 108, 6-((6-aminopyrimidin-4-yl)amino)-8-chloro-2H-spiro[imidazo[1,5-a]pyridine-3,4′-piperidine]-1,5-dione dihydrochloride], the negative logarithm of the IC50 (pIC50) in data set [1] was greater than 8.00. Moreover, in data set [3], the maximum concentration (Cmax) is 44 ng/mL, the Tmax came out at 0.3 h and the half-life is 0.3 h.
Molecule `Nc1cc(Nc2cc(Cl)c3n(c2=O)C2(CCc4ccc(Cl)cc42)NC3=O)ncn1` (stereo not drawn) [Cpd. No. 111, 6-[(6-aminopyrimidin-4-yl)amino]-6′,8-dichloro-spiro[2H-imidazo[1,5-a]pyridine-3,1′-indane]-1,5-dione hydrochloride] gave a pIC50 in data set [1] greater than 8.00.
Still for that read-out and setting: for `O=c1c(Nc2ccncn2)ccc2n1C1(CCCCC1)NC2=S` [Cpd. No. 131, 6′-(pyrimidin-4-ylamino)-1′-thioxo-1′,2′-dihydro-5′H-spiro[cyclohexane-1,3′-imidazo[1,5-a]pyridin]-5′-one] the value was 7.00 to 8.00.
The same measure, in the same setting: for `CC1(C)NC(=O)c2c(Cl)cc(Nc3ncnc4cnccc34)c(=O)n21` [Cpd. No. 165, 8-chloro-3,3-dimethyl-6-(pyrido[3,4-d]pyrimidin-4-ylamino)-2,3-dihydroimidazo[1,5-a]pyridine-1,5-dione] the value was 7.00 to 8.00; for `Cc1cc(Nc2cc(N)ncn2)c(=O)n2c1C(=O)NC21CCCN(C)C1` (stereo not drawn) [Cpd. No. 170, 6-[(6-aminopyrimidin-4-yl)amino]-1′,8-dimethyl-spiro[2H-imidazo[1,5-a]pyridine-3,3′-piperidine]-1,5-dione], greater than 8.00.
